Laboratory results: the supplement of paper PMC10307832

What was measured:
Assay in all cases: relative viability (nuclei count vs DMSO), 5 days (fraction); higher = more cells survive
[1] = compound: CCC1=CN=CN=C1N2CCN(CC2)CC3=NC4=C(N3)C=C(C=C4)C(F)(F)F + NC(=O)Nc1cc(-c2cccc(F)c2)sc1C(=O)N[C@H]1CCCNC1 [AZD7762] (partner 0.2 µM)
In short: (§1)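 Values are medians from duplicate plates. Each reflects relative viability, defined as the nuclei count of treated wells over that of vehicle wells. Lung cancer cell lines in 1536-well plates were pin-tool dosed one day after seeding with one drug alone or with a fixed anchor-drug dose plus five library-drug doses (not always all listed) in √10 steps, then fixed, stained and imaged at 4× after 5 days.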

[2] = compound: CCn1c(-c2nonc2N)nc2cnc(Oc3cccc(NC(=O)c4ccc(OCCN5CCOCC5)cc4)c3)cc21 + CC(=O)c1c(C)c2cnc(Nc3ccc(N4CCNCC4)cn3)nc2n(C2CCCC2)c1=O [Palbociclib] (partner 0.5 µM)
In short: as §1

[3] = compound: CCn1c(-c2nonc2N)nc2cnc(Oc3cccc(NC(=O)c4ccc(OCCN5CCOCC5)cc4)c3)cc21 + C[C@]1(O)C[C@@H](c2nc(-c3ccc4ccc(-c5ccccc5)nc4c3)c3c(N)nccn32)C1 [Linsitinib] (partner 1 µM)
In short: as §1

Mirin + Palbociclib = compound: N=C1NC(=O)/C(=C/c2ccc(O)cc2)S1 [Mirin] + CC(=O)c1c(C)c2cnc(Nc3ccc(N4CCNCC4)cn3)nc2n(C2CCCC2)c1=O [Palbociclib] (partner 0.5 µM)
In short: as §1

Cell Line	relative viability ([1]; first compound 0.04 µM)	relative viability ([1]; first compound 0.1265 µM)	relative viability ([1]; first compound 0.4 µM)	relative viability ([1]; first compound 1.265 µM)	relative viability ([1]; first compound 4 µM)	relative viability ([2]; first compound 0.04 µM)	relative viability ([2]; first compound 0.1265 µM)	relative viability ([2]; first compound 0.4 µM)	relative viability ([2]; first compound 1.265 µM)	relative viability ([2]; first compound 4 µM)	relative viability ([3]; first compound 0.04 µM)	relative viability ([3]; first compound 0.1265 µM)	relative viability ([3]; first compound 0.4 µM)	relative viability ([3]; first compound 1.265 µM)	relative viability ([3]; first compound 4 µM)	relative viability (Mirin + Palbociclib; first compound 0.25 µM)	relative viability (Mirin + Palbociclib; first compound 0.7906 µM)	relative viability (Mirin + Palbociclib; first compound 2.5 µM)	relative viability (Mirin + Palbociclib; first compound 7.906 µM)	relative viability (Mirin + Palbociclib; first compound 25 µM)
EKVX	0.724	0.712	0.756	0.646	0.777	0.566	0.368	0.365	0.348	0.329	1.42	1.02	1.08	0.813	0.976	0.367	0.376	0.302	0.365	0.412
EMC-BAC-2	1.1	1.05	1.12	1.05	1.21	0.517	0.458	0.397	0.369	0.389	1.03	0.839	0.814	0.834	0.877	0.485	0.515	0.52	0.4	0.502
EPLC-272H	0.172	0.209	0.207	0.245	0.262	0.391	0.406	0.302	0.316	0.296	1.35	1.12	1.14	1.1	1.18	0.283		0.339	0.345	0.353
H3255	0.86	0.852	0.824	0.931	0.874	0.293	0.311	0.318	0.296	0.305	1.2	0.952	0.99	0.62	0.768	0.308	0.309	0.298	0.323	0.328
